Source: patent US20210239681A1, “COMPOSITIONS AND METHODS FOR […] OF […]-BASED IMMUNOTHERAPEUTICS” (ADVAXIS, INC., priority 2018, published 2021)

Key:
Format in all cases: cell-based, human
[1] = system: 10mer specific T cells; test: Co-culture of THP-1 with 10mer specific T cells, cytokine production; parameters: IFNγ / IL-10 / IL-13 / IL-1β / IL-2 / IL-5 / IL-6 / TNF-α: unit not given here; conditions: for IFNγ production, with 10mer specific T cells: Listeria MOI of 10, optical density
Source text: (§1) Analysis Kits and Reagents: Analysis of cytokine concentrations in culture medium used the U-plex assay kits from Meso Scale Discovery. Expression of T cell receptors specific for E7 peptide bound to HLA-A*02:01 was detected using HLA-A*02:01/peptide tetramers from MBL International (Woburn, Mass.).
(§2) There were several possible explanations for the muted response with THP-1 cells infected with ADSX11: including failure of THP-1 cells to process the 10mer epitope from full length E7 protein, failure of the THP-1 cells to present the processed 10mer E7 peptide on HLA-A*02:01, insufficient incubation of the infected cells to allow synthesis of the E7 protein and accumulation of the MHC/peptide complex on the cell surface, and/or an inhibitory effect of gentamicin. A culture of T cells specific for the 9mer epitope was used as well as a new culture of 10mer specific T cells. The THP-1 cells were infected as before with XFL7 or ADXS11-001 at an MOI of 10. After treatment with gentamicin for one hour, the cells were cultured overnight in the absence of gentamicin. The next day the infected cells were collected and co-cultured with 9mer or 10mer specific T cells. These co-cultures were set up in standard X-VIVO 15 and X-VIVO 15 without gentamicin or phenol red. The co-cultures were incubated overnight before collecting medium for cytokine analysis. The medium was tested for IFNγ concentrations and optical density. […] In addition, the 10mer specific T cells recognized ADXS11-001 infected THP-1 when there was no gentamicin in the medium.
(§3) To further explore the importance of the overnight incubation of infected THP-1, THP-1 cells infected overnight were compared to THP-1 cells infected for 2 hours. T cells specific for 9mer and 10mer peptides were co-cultured with each of the THP-1 cells and with uninfected or peptide exposed THP-1. As before, medium was collected after an overnight co-culture and cytokines were measured.
(§4) Optimization of infection time required for E7 presentation. THP-1 infected and cultured overnight compared to THP-1 infected for 2 hours and used after gentamicin treatment. Both 9-mer specific T cells and 10-mer specific T cells used. Assays were performed using X-VIVO 15 medium without gentamicin. The following cytokines were measured: IFNγ, IL-1β, IL-2, IL-10, IL-12p70, IL-13, IL-5, IL-6, TNFα.

[2] = system: T cells; test: Intracellular cytokine staining of T cells; conditions: Brefeldin A, FIG. 9
Method: (§5) To identify cytokines that can be used to measure potency of a Listeria-based therapeutic the following tests were performed. Intracellular cytokine staining was used to detect T cells specificity. THP-1 were incubated with peptide overnight, mixed with T cells from above and centrifuged. The collected cells were then co-cultured at 37° C. for 1 hour. Brefeldin A was then added and the cells were co-cultured for another 4 hours. Brefeldin A inhibits secretion and permits analysis by flow cytometry. Cell were then stained to identify dead cells and CD8+ cells. The cell were then fixed and stained for IFNγ (using fix and permeabilization buffer from eBioscience/Invitrogen).

[3] = system: THP-1 cells; test: Cytokine production by THP-1 in the absence of T cells; conditions: Without gentamicin; Listeria MOI of 10; optical density
[4] = system: 9mer specific T cells; test: Co-culture of THP-1 with 9mer specific T cells, cytokine production; parameters: IFNγ / IL-10 / IL-12p70 / IL-13 / IL-1β / IL-2 / IL-5 / IL-6 / TNF-α: unit not given here; conditions: for IFNγ production, with 9mer specific T cells: Listeria MOI of 10, optical density
Source text: as §1, §2, §3, §4

[5] = system: THP-1 cells; test: Intracellular cytokine staining of THP-1 cells; conditions: FIGS. 3A-3C, FIG. 10
Method: as §5
Intracellular cytokine staining of THP-1 cells.

[6] = system: THP-1 cells; test: Cytokine production by THP-1 in the absence of T cells; parameters: IL-6: unit not given here
Method: as §1
Infection of THP-1: The THP-1 cell line was infected with either ADXS11-001 or XFL7 by incubating 10^6 cells with dilutions of bacteria in a 1 mL volume of RPMI 1640 10% FBS. […] After incubation with gentamicin the cells were washed again and resuspended to the desired cell concentration.
(§6) T cell cytokine expression analysis. An initial experiment using THP-1 as antigen presenting cells was performed using a T cell culture containing 6% E7 (11-20) specific T cells based upon staining with HLA-A*02:01/peptide tetramer. THP-1 cells were infected as described using two different concentrations of bacteria and then co-cultured with the T cells. Controls included uninfected THP-1 cells and THP-1 cells incubated with (exposed to) either the 9mer or 10mer peptide for one hour. After an overnight co-culture, medium was collected for analysis of cytokines.
as §3
Titration studies with different multiplicity of infection (MOI). THP cells were infected for 2 hours with 3 different dilutions (MOI) of Listeria. Infected or uninfected THP cells were then cultured overnight for 24 hours before co-culturing the T cells. Cells were co-cultured overnight before cytokine analysis.

[7] = system: E7 (11-20) specific T cells; test: Initial THP-1 / T cell co-culture cytokine production (T cell culture with 6% E7 (11-20) specific T cells); parameters: IFNγ / TNF-α / IL-10 / IL-12p70 / IL-13 / IL-1β / IL-2 / IL-4 / IL-6 / IL-8: unit not given here; conditions: T cells and THP-1 incubated with peptide one hour; overnight co-culture
Method: as §1
Infection of THP-1: The THP-1 cell line was infected with either ADXS11-001 or XFL7 by incubating 10^6 cells with dilutions of bacteria in a 1 mL volume of RPMI 1640 10% FBS. Incubation with bacteria was at 37° C., 5% CO2 for the indicated times, then extracellular bacteria were eliminated by washing and incubation in the presence of 50 μg/mL gentamicin for 1 hour at 37° C. After incubation with gentamicin the cells were washed again and resuspended to the desired cell concentration.
as §6

[8] = system: PBMC; test: Cytokine release by donor PBMC cultured with peptide; parameters: unit not given beside the values; conditions: release on antigen
Method: Peripheral blood mononuclear cells (PBMCs) samples were collected from three human HLA-A*02:01 donors: 358, 213, and 224. The peripheral blood mononuclear cells (PBMCs) were cultured with one of two E7 peptides: […] (9mer or 1T; SEQ ID NO: 100) or […] (10mer or 2T; SEQ ID NO: 101). After 10 days culture, the PBMCs were tested for E7 peptide binding staining and cytokine release.

[9] = 9mer T cells + peptide exposed THP-1, overnight co-culture
[10] = THP-1 incubated with peptide, absence of T cells
[11] = 10mer T cells + peptide exposed THP-1, overnight co-culture

Substance: gentamicin
- effect of gentamicin in the culture medium on antigen presentation ([1]; Listeria-based infection of THP-1, 50 μg/mL): inhibits expression of E7 or antigen presentation

Substance: YMLDLQPET [9mer]
- IFNγ in T cells after stimulation with peptide [2]: detected
- IFNγ production, THP-1 alone [3]: 0.059
- IFNγ production, with 9mer specific T cells ([4]; 50 μg/mL gentamicin): 0.177
- IFNγ [4, 9]: 4713
- IL-1β [4, 9]: 0
- IL-2 [4, 9]: 18
- IL-5 [4, 9]: 0
- IL-6 [4, 9]: 13
- IL-10 [4, 9]: 1
- IL-12p70 [4, 9]: 0
- IL-13 [4, 9]: 3
- TNF-α [4, 9]: 74
- IFNγ production, with 9mer specific T cells ([4]; Without gentamicin): 0.117
- Basal IFNγ in THP-1 cells after stimulation with peptide [5]: not detectable
- IFNγ production, THP-1 alone ([6]; 50 μg/mL gentamicin, Listeria MOI of 10, optical density): 0.064
- IFNγ ([6]; THP-1 alone, peptide exposed): <LLOD
- IL-1β ([6]; THP-1 alone, peptide exposed): <LLOD
- IL-2 ([6]; THP-1 alone, peptide exposed): <LLOD
- IL-5 ([6]; THP-1 alone, peptide exposed): <LLOD
- IL-6 ([6]; THP-1 alone, peptide exposed): <LLOD
- IL-10 ([6]; THP-1 alone, peptide exposed): <LLOD
- IL-12p70 ([6]; THP-1 alone, peptide exposed): <LLOD
- IL-13 ([6]; THP-1 alone, peptide exposed): <LLOD
- TNF-α ([6]; THP-1 alone, peptide exposed): 0
- IFNγ [6, 10]: <LLOD
- IL-1β [6, 10]: 0.0
- IL-2 [6, 10]: <LLOD
- IL-4 [6, 10]: <LLOD
- IL-6 [6, 10]: <LLOD
- IL-8 [6, 10]: 7.3
- IL-10 [6, 10]: <LLOD
- IL-12p70 [6, 10]: <LLOD
- IL-13 [6, 10]: <LLOD
- TNF-α [6, 10]: <LLOD
- IFNγ production, with 10mer specific T cells ([1]; 50 μg/mL gentamicin): 0.063
- IFNγ [1, 11]: 103
- IL-1β [1, 11]: <LLOD
- IL-2 [1, 11]: <LLOD
- IL-5 [1, 11]: <LLOD
- IL-6 [1, 11]: <LLOD
- IL-10 [1, 11]: 0
- IL-12p70 [1, 11]: <LLOD
- IL-13 [1, 11]: <LLOD
- TNF-α [1, 11]: <LLOD
- IFNγ production, with 10mer specific T cells ([1]; Without gentamicin): 0.062
- IFNγ [7]: 1508.2
- IL-1β [7]: 1.0
- IL-2 [7]: 3.7
- IL-4 [7]: 0.2
- IL-6 [7]: 4.2
- IL-8 [7]: 405.7
- IL-10 [7]: 2.1
- IL-12p70 [7]: <LLOD
- IL-13 [7]: 120.3
- TNF-α [7]: 57.1
- IFNγ Mean ([8]; donor 213 PBMC cultured with 1T peptide): 242.6
- IFNγ Mean ([8]; donor 358 PBMC stimulated with 1T): 1642.7
- IFNγ Mean ([8]; donor 358 PBMC stimulated with 2T): 352.4
